The supplement of paper PMC12533247

Experiments:
[1] = test system: HSV-1 K26-GFP infected primary human skin cells; assay: % change of HSV-1 GFP signal vs untreated infected cells; higher = less antiviral inhibition
Procedure: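 2D primary donor-derived keratinocytes (read at 20 hpi) and donor-matched dermal fibroblasts (read at 48 hpi) infected with GFP-HSV-1 K26 at MOI 1 and treated 1 h later with compound dilutions. IncuCyte GFP integrated intensity is normalised by subtracting mock-infected wells and dividing by untreated infected wells, shown as % change (-100 = full inhibition).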

[2] = test system: HSV-1 K26-GFP infected 3D skin equivalent; assay: % activity on HSV-1 GFP signal (0 = infected DMSO control, -100 = uninfected control); higher = higher signal (negative = inhibition / toxicity); settings: time (h post infection): 48
Procedure: (§1)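 Triplicate dose-response (0.04 to 10 uM) of 11 top compounds in 3D bioprinted skin equivalents (submerged and ALI models) infected with GFP-HSV-1 K26 at MOI 0.1 and fixed at 48 hpi. GFP (virus) and tdTomato (fibroblast viability) signals are normalised to per-plate controls.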

primary keratinocytes = assay: % change in live cells vs DMSO control; higher = less cytotoxic; settings: time (h post treatment): 20
Procedure: (§2)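 Cytotoxicity in uninfected 2D primary donor keratinocytes (20 h post treatment) and fibroblasts (48 h post treatment), measured with NucSpot live/dead dyes on IncuCyte. Live cells are normalised to the 0.2% DMSO control and shown as % change. Three biological replicates for each of donors 3, 4 and 5.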

[3] = test system: primary dermal fibroblasts; assay: as above; settings: time (h post treatment): 48
Procedure: as §2

[4] = test system: HSV-1 K26-GFP infected 3D skin equivalent; assay: % change of tdTomato fibroblast signal relative to infected DMSO control; higher = higher signal (negative = inhibition / toxicity); settings: time (h post infection): 48
Procedure: as §1

CC(=O)O[C@H]1C[C@H](O[C@H]2[C@@H](O)C[C@H](O[C@H]3[C@@H](O)C[C@H](O[C@H]4CC[C@@]5(C)[C@H](CC[C@@H]6[C@@H]5C[C@@H](O)[C@]5(C)[C@@H](C7=CC(=O)OC7)CC[C@]65O)C4)O[C@@H]3C)O[C@@H]2C)O[C@H](C)[C@H]1O[C@@H]1O[C@H](CO)[C@@H](O)[C@H](O)[C@H]1O [Lanatoside C]
% change of HSV-1 GFP signal [%], [1]
Settings | 0.001 µM | 0.003 µM | 0.0091 µM | 0.0274 µM | 0.0823 µM | 0.2469 µM | 0.7407 µM | 2.2222 µM | 6.6667 µM | 20 µM
cell type: primary dermal fibroblasts, donor: 5, time (h post infection): 48 | -2.98 | -9.39 | -4.44 | -5.88 | -21.6 | -99.19 | -99.81 | -99.972 | -99.993 | -99.985
cell type: primary keratinocytes, donor: 3, time (h post infection): 20 | 4.49 | 6.12 | -2.17 | 7.86 | -16.9 | -96 | -99.91 | -99.948 | -99.8 | -99.941
cell type: primary keratinocytes, donor: 4, time (h post infection): 20 | -0.192 | -0.172 | -18.5 | -9.65 | -38.4 | -79.3 | -100.1 | -100.1 | -100.1 | -100.07
cell type: primary keratinocytes, donor: 5, time (h post infection): 20 | 12.3 | 12.4 | 10 | -3.35 | -66 | -99.66 | -99.948 | -99.893 | -99.85 | -99.904

Settings | % activity on HSV-1 GFP signal, [2] [%] | % change in live cells, [3] [%] | % change in live cells, primary keratinocytes [%] | % change of tdTomato fibroblast signal, [4] [%]
0.041152 µM, model: ALI | -34.1 | – | – | 2.37
0.041152 µM, model: submerged | -5.47 | – | – | -1.16
0.082305 µM, donor: 3 | – | -25.7 | -27 | –
0.082305 µM, donor: 4 | – | -1.33 | -18 | –
0.082305 µM, donor: 5 | – | -11.3 | -3.67 | –
0.123457 µM, model: ALI | -95.2 | – | – | 5.13
0.123457 µM, model: submerged | -72.7 | – | – | -17.7
0.246914 µM, donor: 3 | – | -39.7 | -47 | –
0.246914 µM, donor: 4 | – | -20 | -39.7 | –
0.246914 µM, donor: 5 | – | -32.7 | -54.3 | –
0.37037 µM, model: ALI | -105 | – | – | -2.13
0.37037 µM, model: submerged | -99.6 | – | – | -23.6
0.740741 µM, donor: 3 | – | -48.3 | -55.3 | –
0.740741 µM, donor: 4 | – | -28.3 | -63 | –
0.740741 µM, donor: 5 | – | -31.7 | -58.3 | –
1.111111 µM, model: ALI | -104 | – | – | 0.581
1.111111 µM, model: submerged | -103 | – | – | -37.1
2.22222 µM, donor: 3 | – | -47 | -53.7 | –
2.22222 µM, donor: 4 | – | -29.7 | -64 | –
2.22222 µM, donor: 5 | – | -37.3 | -59 | –
3.33333 µM, model: ALI | -104 | – | – | -5.14
3.33333 µM, model: submerged | -104 | – | – | -52.9
6.66667 µM, donor: 3 | – | -46 | -58 | –
6.66667 µM, donor: 4 | – | -24.3 | -71.3 | –
6.66667 µM, donor: 5 | – | -42 | -56.3 | –
10 µM, model: ALI | -99.5 | – | – | -4.98
10 µM, model: submerged | -107 | – | – | -56.04
20 µM, donor: 3 | – | -43.3 | -67.7 | –
20 µM, donor: 4 | – | -22.7 | -76.3 | –
20 µM, donor: 5 | – | -46.7 | -57.3 | –
60 µM, donor: 3 | – | -49.3 | -71.3 | –
60 µM, donor: 4 | – | -23.3 | -76.3 | –
60 µM, donor: 5 | – | -58.7 | -62.3 | –
